Test results reported in ChEMBL document CHEMBL3600379, “Radiosynthesis and preliminary PET evaluation of glycogen synthase kinase 3β (GSK-3β) inhibitors containing [(11)C]methylsulfanyl, [(11)C]methylsulfinyl or [(11)C]methylsulfonyl groups” (Bioorg Med Chem Lett, 2015).

Tests used:
Format in all cases: ADME, organism-based
Brain [1] = assay: Drug uptake in brain of normal mouse at 15 to 20 MBq, iv measured at 30 mins by PET image analysis; conditions: in vivo, 0.5 h
Brain [2] = assay: Drug uptake in brain of cold water-induced mouse stress model at 15 to 20 MBq, iv measured at 30 mins by PET image analysis; conditions: in vivo, 0.5 h
Brain [3] = assay: Drug uptake in brain of cold water-induced mouse stress model at 15 to 20 MBq, iv measured at 2 mins by PET image analysis; conditions: in vivo
Brain [4] = assay: Drug uptake in brain of cold water-induced mouse stress model at 15 to 20 MBq, iv measured over 60 mins by PET image analysis relative to normal mouse; conditions: in vivo, 1 h
Brain [5] = assay: Drug uptake in brain of cold water-induced mouse stress model at 15 to 20 MBq, iv measured at 15 mins by PET image analysis; conditions: in vivo, 0.25 h
Brain [6] = assay: Drug uptake in brain of normal mouse at 15 to 20 MBq, iv measured at 2 mins by PET image analysis; conditions: in vivo
Brain [7] = assay: Drug uptake in brain of normal mouse at 15 to 20 MBq, iv measured at 15 mins by PET image analysis; conditions: in vivo, 0.25 h

| Drug uptake (Brain [1]) | Drug uptake (Brain [2]) | SUV (Brain [3]) | fold change (FC) (Brain [4]) | SUV (Brain [5]) | SUV (Brain [6]) | SUV (Brain [7]) | Structure (SMILES) |
| --- | --- | --- | --- | --- | --- | --- | --- |
| Not Active | Not Active | 1.6 | 2 | 0.4 | 0.7 | 0.2 | Cc1nnc(-c2ccc3occ(-c4ccc(S([11CH3])(=O)=O)cc4)c3c2)o1 |
| Not Active | Not Active | 0.8 |  | 0.3 | 0.5 | 0.3 | Cc1nnc(-c2ccc3occ(-c4ccc([S+]([11CH3])[O-])cc4)c3c2)o1 (stereo not given) |
| Not Active | Not Active | 1.5 | 2 | 0.7 | 1 | 0.3 | Cc1nnc(-c2ccc3occ(-c4ccc(S[11CH3])cc4)c3c2)o1 |
